For 65 molecules, Activity and log Ka results are on record in ChEMBL document CHEMBL4052722, “Virtual screening, synthesis and biological evaluation of DNA intercalating antiviral agents” (Bioorg Med Chem Lett, 2017).

Experiment [1] has as its system Vesicular stomatitis virus. The experiment is described as follows: Antiviral activity against Vesicular stomatitis virus at 0.2 to 620 uM after 24 hrs post infection relative to control. It counts as functional.
The species entered for the next experiment is Bos taurus. The experiment is described as follows: Displacement of ethidium bromide from calf thymus DNA by fluorescence binding assay.

For the molecule `CC1CCN(CCn2c3ccccc3c3nc4ccccc4nc32)CC1`, the Activity in experiment [1] came out at 90%. The molecule also had a log Ka in the experiment filed under Bos taurus of 5.98.
The like results for `OCCNCCCn1c2ccccc2c2nc3ccccc3nc21` were, in that order, 37% and 6.4.
`CN(C)CCCN1C(=O)c2cccc3cccc(c23)C1=O` gave a log Ka in the experiment listed under Bos taurus of 7.07.
The molecule `CCN(CC)CCCNC(=O)CCN1C(=O)c2cccc3cccc(c23)C1=O` yielded an Activity in experiment [1] of 10%. Further, in the experiment listed under Bos taurus, the log Ka amounted to 5.79.
The like results for `O=C(CN1CCCCC1)N/N=C1\C(=O)Nc2ccccc21` were, in that order, 100% and 5.64.
`O=C(Cn1c2ccccc2c2nc3ccccc3nc21)NCCN1CCNCC1`: the log Ka in the experiment listed under Bos taurus amounted to 5.72.
The same measure, in the same setting: with `CCN(CC)CCCNC(=O)CCCn1c2ccccc2c2nc3ccccc3nc21` the figure was 4.77.
In turn, `O=C(Cn1c2ccccc2c2nc3ccccc3nc21)NCCN1CCCCC1` displayed an Activity in experiment [1] of 80%. Further, in the experiment listed under Bos taurus, the log Ka is 5.15.
`CCCN(CCC)CCn1c2ccccc2c2nc3ccccc3nc21` displayed an Activity in experiment [1] of 90%. In addition, the log Ka in the experiment filed under Bos taurus amounted to 6.09.
In the experiment filed under Bos taurus, `O=C(CCCn1c2ccccc2c2nc3ccccc3nc21)NCCCNCCO` came in with a log Ka of 5.09.
The molecule `CCN(CC)CCCCn1c2ccccc2c2nc3ccccc3nc21` showed an Activity in experiment [1] of 10%. In the experiment filed under Bos taurus, this molecule returned a log Ka of 6.22.
On the same counts, the results for `CN(C)CCCOC(=O)CCCn1c2ccccc2c2nc3ccccc3nc21` are 100% and 5.32.
As to `CC1CCN(CCCCn2c3ccccc3c3nc4ccccc4nc32)CC1`, in experiment [1], the Activity is listed as 20%. The log Ka in the experiment listed under Bos taurus came out at 5.8.
On the same counts, the results for `CC1CCN(CCCn2c3ccccc3c3nc4ccccc4nc32)CC1` are 74% and 6.07.
Consider `O=C1c2cccc3cccc(c23)C(=O)N1CCN1CCCCC1`, for which the log Ka in the experiment listed under Bos taurus was 5.29.
Take `CC1CCN(CCC(=O)N/N=C2\C(=O)Nc3ccccc32)CC1`: in experiment [1], the Activity is on record as 80%. The molecule further displayed a log Ka in the experiment filed under Bos taurus of 5.91.
With `O=C(NCCN1CCOCC1)c1cc2c(ccc3ccccc32)o1`, the log Ka in the experiment filed under Bos taurus amounted to 4.58.
In turn, `CN(C)CCCCCCn1c2ccccc2c2nc3ccccc3nc21` came in with an Activity in experiment [1] of 82%. In the experiment listed under Bos taurus, the log Ka was found to be 5.81.
On the same counts, the results for `CC1CCCCN1CCCn1c2ccccc2c2nc3ccccc3nc21` (stereo not given) are 56% and 6.28.
Molecule `CCN(CC)CCN1C(=O)/C(=N\NC(=O)CCN2CCOCC2)c2ccccc21` returned a log Ka in the experiment filed under Bos taurus of 6.08.
Same read-out and setting: the figure for `O=C(CN1C(=O)c2cccc3cccc(c23)C1=O)NCCCN1CCOCC1` is 5.46.
For `c1ccc2nc3c(nc2c1)c1ccccc1n3CCN1CCCCC1`, in experiment [1], the Activity was 90%. The log Ka in the experiment filed under Bos taurus stood at 6.01.
The like results for `c1ccc2nc3c(nc2c1)c1ccccc1n3CCN1CCCC1` were, in that order, 85% and 6.05.
`CCN(CC)CCN1C(=O)/C(=N\NC(=O)CN2CCCCC2)c2ccccc21`: the log Ka in the experiment filed under Bos taurus amounted to 5.74.
In the case of `CC1CCCCN1CCn1c2ccc3ccccc3c2c2nc3ccccc3nc21` (stereo not given), the Activity in experiment [1] was found to be 20%. In the experiment filed under Bos taurus, this molecule returned a log Ka of 6.83.
On to `O=C(CCN1C(=O)c2cccc3cccc(c23)C1=O)NCCCN1CCOCC1`, for which the Activity in experiment [1] turned out to be 30%. In the experiment filed under Bos taurus, the log Ka was determined as 5.72.
The like results for `c1ccc2nc3c(nc2c1)c1ccccc1n3CCCCN1CCOCC1` were, in that order, 35% and 5.94.
In experiment [1], `CCN(CC)CCNC(=O)CCN1C(=O)c2cccc3cccc(c23)C1=O` returned an Activity of 20%. Besides, in the experiment listed under Bos taurus, the log Ka was determined as 5.85.
On the same counts, the results for `CC1CCN(CC(=O)N/N=C2\C(=O)Nc3ccccc32)CC1` are 60% and 5.4.
For `CCN(CC)CCN1C(=O)/C(=N/NC(=O)CCN2CCCCCC2)c2ccccc21`, in the experiment listed under Bos taurus, the log Ka is 6.03.
The same measure, in the same setting: with `CN1CCN(CCCCCCn2c3ccccc3c3nc4ccccc4nc32)CC1` the figure was 6.45; with `O=C(NCCCN1CCOCC1)c1cc2c(ccc3ccccc32)o1`, 5.64.
With `CN(C)CCCNC(=O)CN1C(=O)c2cccc3cccc(c23)C1=O`, the log Ka in the experiment listed under Bos taurus stood at 5.63.
`CCN(CC)CCN1C(=O)/C(=N\NC(=O)CN2CCCCCC2)c2ccccc21`: the log Ka in the experiment listed under Bos taurus was determined as 6.32.
`CCN(CC)CC(=O)NN1C(=O)c2cccc3cccc(c23)C1=O` gave a log Ka in the experiment filed under Bos taurus of 5.6.
Still for that read-out and setting: the figure for `O=C(CCCn1c2ccccc2c2nc3ccccc3nc21)NCCNCCO` is 5.05; for `O=C1c2cccc3cccc(c23)C(=O)N1CCNCCO` it is 5.57.
In the experiment filed under Bos taurus, `O=C(CN1CCOCC1)N/N=C1\C(=O)Nc2ccccc21` registered a log Ka of 5.28.
On the same count and under the same terms, the figure for `CCN(CC)CCCNC(=O)c1cc2c(ccc3ccccc32)o1` is 6.12.
`CC1CCN(CCn2c3ccccc3c3nc4c(nc32)CCCC4)CC1` returned an Activity in experiment [1] of 95%.
For `CN1CCN(CCn2c3ccccc3c3nc4c(nc32)CCCC4)CC1`, the Activity in experiment [1] came to 100%.
`O=C(CN1C(=O)c2cccc3cccc(c23)C1=O)NCCN1CCOCC1` displayed a log Ka in the experiment listed under Bos taurus of 5.68.
In the case of `c1ccc2c(c1)c1nc3c(nc1n2CCN1CCCCC1)CCCC3`, the Activity in experiment [1] was determined as 65%.
`CN1CCN(CCCCCn2c3ccccc3c3nc4ccccc4nc32)CC1` had a log Ka in the experiment filed under Bos taurus of 6.23.
In turn, `CCN(CC)CCCNC(=O)CN1C(=O)c2cccc3cccc(c23)C1=O` showed a log Ka in the experiment filed under Bos taurus of 5.31.
In the case of `O=C(CN1CCCCC1)NN1C(=O)c2cccc3cccc(c23)C1=O`, the log Ka in the experiment filed under Bos taurus worked out at 6.2.
Still for that read-out and setting: with `O=C(CCCn1c2ccccc2c2nc3ccccc3nc21)NCCN1CCNCC1` the figure was 4.97.
In the case of `CN(C)CCn1c2ccccc2c2nc3c(nc21)CCCC3`, the Activity in experiment [1] is recorded as 88%.
On to `c1ccc2nc3c(nc2c1)c1ccccc1n3CCCCCCN1CCCCC1`, for which the log Ka in the experiment filed under Bos taurus amounted to 5.95.
The same measure, in the same setting: with `CNCCCN1C(=O)c2cccc3cccc(c23)C1=O` the figure was 5.57.
In experiment [1], `c1ccc2c(c1)c1nc3c(nc1n2CCN1CCOCC1)CCCC3` yielded an Activity of 66%.
`CCN(CC)CCNC(=O)CCCCCN1C(=O)c2cccc3cccc(c23)C1=O`: the log Ka in the experiment listed under Bos taurus turned out to be 5.49.
The same measure, in the same setting: the figure for `O=C1c2cccc3cccc(c23)C(=O)N1CCCN1CCOCC1` is 6.93.
Still for that read-out and setting: the figure for `O=C(CN1CCCC1)N/N=C1\C(=O)Nc2ccccc21` is 5.58.
On to `CCCN(CCC)CCn1c2ccccc2c2nc3c(nc21)CCCC3`, for which the Activity in experiment [1] is reported as 90%.
As for `CCN(CC)CCNC(=O)c1cc2c(ccc3ccccc32)o1`, the log Ka in the experiment filed under Bos taurus was 5.77.
Still for that read-out and setting: the figure for `CN(C)CCCNC(=O)CCN1C(=O)c2cccc3cccc(c23)C1=O` is 5.92; for `CCN(CC)CCN1C(=O)c2cccc3cccc(c23)C1=O` it is 6.98; for `O=C1c2cccc3cccc(c23)C(=O)N1NCCN1CCOCC1` it is 5.38.
The same measure, in the same setting: the figure for `CCN(CC)CCCN1C(=O)c2cccc3cccc(c23)C1=O` is 6.57; for `CN(C)CCCNC(=O)c1cc2c(ccc3ccccc32)o1` it is 5.48; for `O=C(CCCCCN1C(=O)c2cccc3cccc(c23)C1=O)NCCN1CCOCC1` it is 5.53.
On the same count and under the same terms, with `CCN(CC)CCNC(=O)CN1C(=O)c2cccc3cccc(c23)C1=O` the figure was 5.54.
In turn, `CN(C)CCCNC(=O)CCCN1C(=O)c2cccc3cccc(c23)C1=O` registered a log Ka in the experiment listed under Bos taurus of 5.95.
Consider `O=C(CN1CCOCC1)NN1C(=O)c2cccc3cccc(c23)C1=O`, for which, in the experiment filed under Bos taurus, the log Ka is 5.34.
